Here are results for 37 compounds from publication PMC4111740, “Ligand-Based Pharmacophore Modeling and Virtual Screening for the Discovery of Novel 17β-Hydroxysteroid Dehydrogenase 2 Inhibitors” (Journal of Medicinal Chemistry, 2014).

What is called pIC50 is −log10 of the IC50, conventionally taken in molar units.

pIC50: −log10 of the molar value. A value given as a limit tells only on which side of the number the result lay.

For one test, the target named is T1, 17β-HSD2 (Homo sapiens, UniProt P37059).
T1 construct: expressed in transfected cells; host or cells: HEK-293 (transient, calcium phosphate), lysate
T1 sequence (P37059 1-387): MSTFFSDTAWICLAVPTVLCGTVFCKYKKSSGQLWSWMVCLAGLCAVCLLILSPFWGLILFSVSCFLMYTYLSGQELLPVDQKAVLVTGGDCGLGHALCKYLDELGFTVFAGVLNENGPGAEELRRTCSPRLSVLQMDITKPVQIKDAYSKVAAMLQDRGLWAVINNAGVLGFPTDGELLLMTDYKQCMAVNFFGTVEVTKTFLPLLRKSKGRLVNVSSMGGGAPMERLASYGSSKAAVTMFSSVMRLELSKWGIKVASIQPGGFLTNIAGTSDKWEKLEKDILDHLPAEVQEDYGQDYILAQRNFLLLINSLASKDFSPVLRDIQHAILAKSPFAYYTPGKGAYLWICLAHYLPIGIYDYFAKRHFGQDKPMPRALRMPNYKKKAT
The test is described as follows: 17β-HSD2 activity in lysates of transfected HEK-293 cells (cell-free, radiolabeled estradiol). The format is biochemical. The note with it: Table S2, virtual screening hits, tested at 20 μM in lysates. How it is done: Next, the 17β-HSD2 inhibitory activities of the chosen hits were evaluated in a cell-free assay. The activities were first determined at an inhibitor concentration of 20 μM using lysates of transfected HEK-293 cells. In all experiments, vehicle was included as negative control and N-(3-methoxyphenyl)-N-methyl-5-m-tolylthiophene-2-carboxamide (compound 19 from ref ([26])) as positive control.
HEK-293 cells were transfected by the calcium phosphate precipitation method with plasmids for human 17β-HSD1, 17β-HSD2, or 11β-HSD2. Cells were cultivated for 48 h, washed with phosphate-buffered saline, and centrifuged for 4 min at 150g. After removal of the supernatants, cell pellets were snap frozen in dry ice and stored at −80 °C until further use.
Lysates of human embryonic kidney cells (HEK-293) expressing either 17β-HSD1 or 17β-HSD2 were incubated for 10 min at 37 °C in TS2 buffer in a final volume of 22 μL containing either solvent (0.2% DMSO/chloroform) or the inhibitor at the respective concentration. N-(3-Methoxyphenyl)-N-methyl-5-m-tolylthiophene-2-carboxamide (compound 19 in ref ([26])) and apigenin[50] were used as positive controls for 17β-HSD1 and 17β-HSD2, respectively, in all experiments. 17β-HSD1 activity was measured in the presence of 190 nM unlabeled estrone, 10 nM radiolabeled estrone, and 500 μM NADPH. In contrast, 17β-HSD2 activity was determined in the presence of 190 nM unlabeled estradiol, 10 nM radiolabeled estradiol, and 500 μM NAD^+. Reactions were stopped after 10 min by adding an excess of unlabeled estradiol and estrone (1:1, 2 mM in methanol). Possible promiscuous enzyme inhibition by aggregate formation of the chemicals was excluded by measuring the inhibition of the enzyme activity by the compounds in the presence of 0.1% Triton X-100.[36] […] To exclude irreversible inhibition by the compounds investigated,[35] cell lysates were preincubated with the compounds for 0, 10, and 30 min, respectively, followed by measurement of the enzyme activity. […] The steroids were separated by TLC, followed by scintillation counting and calculation of substrate concentration. Data were collected from at least three independent measurements.
Consider `Oc1ccc(-c2cn3cc(C(F)(F)F)ccc3n2)cc1` [AQ-776/42801516], for which the “17β-HSD2 Activity (in words)” value is given as “Inactive”.

For `CCn1c(Cc2ccccc2)nnc1SCC(=O)Nc1ccccc1OC` [AG-690/40750820], the “17β-HSD2 Activity (in words)” value is on record as “Inactive”.

Take `O=C(Nc1ccc(O)cc1)c1ccc2c(c1)C(=O)N(Cc1ccco1)C2=O` [AN-979/41971109]: the “17β-HSD2 Activity (in words)” value was “Inactive”.

Consider `COc1ccccc1NC(=O)COc1ccc(/C=c2/sc3n(c2=O)CCN=3)cc1` [AH-487/15020191], for which the “17β-HSD2 Activity (in words)” value is listed as “Inactive”.

On to `O=C(COc1ccc(-c2ccccc2)cc1)Nc1ccccc1C(=O)NC1CCCCC1` [AN-329/42613159], for which the “17β-HSD2 Activity (in words)” value is given as “Inactive”.

In the case of `O=C(CSc1ccccc1)Nc1ccc(C(=O)Nc2ccc(O)cc2)cc1` [AN-979/42723474], the “17β-HSD2 Activity (in words)” value is recorded as “Inactive”.

For the compound `COC(=O)c1cc(NC(=O)c2ccc(OC)cc2)ccc1O` [AN-652/43163172], the “17β-HSD2 Activity (in words)” value is “Inactive”.

Consider `COc1cc(C(=O)Nc2cc(C(F)(F)F)ccc2N2CCOCC2)ccc1O` [AP-906/41927951], for which the “17β-HSD2 Activity (in words)” value is reported as “Inactive”.

On to `Oc1cccc(C(O)CNCc2ccncc2)c1` (stereo not shown) [AN-465/42246299], for which the “17β-HSD2 Activity (in words)” value is “Inactive”.

On to `CCCC(=O)Nc1ccc(C(=O)NCc2ccc(OC)cc2)cc1` [AJ-292/42647512], for which the “17β-HSD2 Activity (in words)” value is reported as “Inactive”.

On to `COc1ccc(C(=O)COC(=O)c2ccc(O)cc2)cc1` [AK-918/12108002], for which the “17β-HSD2 Activity (in words)” value is recorded as “Inactive”.

On to `O=C(Cn1nnc2ccccc21)N/N=C/c1ccccc1F` [AG-205/07947037], for which the “17β-HSD2 Activity (in words)” value was “Inactive”.

Regarding `COc1ccccc1NCC(=O)N/N=C/c1sccc1C` [AN-329/11413636], the “17β-HSD2 Activity (in words)” value was “Inactive”.

For the compound `CN(C)Cc1ccccc1Sc1ccc(O)cc1O` [AE-641/30109032], the “17β-HSD2 Activity (in words)” value was “Inactive”.

As to `COc1ccccc1NC(=O)CCC(=O)OC(C)C(=O)c1ccccc1` (stereo not shown) [AG-690/15435864], the “17β-HSD2 Activity (in words)” value is given as “Inactive”.

On to `COc1ccc(OC)c(NC(=O)C(C)Oc2ccc(-c3ccccc3)cc2)c1` (stereo not shown) [AN-329/42958201], for which the “17β-HSD2 Activity (in words)” value is “Inactive”.

Take `COc1cc(C=Nc2ccc(OC(F)(F)F)cc2)ccc1O` [AN-329/11450193]: the “17β-HSD2 Activity (in words)” value is given as “Inactive”.

In the case of `O=C(Cn1nnc2ccccc21)c1ccc(-c2ccccc2)cc1` [AK-918/11592002], the “17β-HSD2 Activity (in words)” value is given as “Inactive”.

As to `O=C(COC(=O)c1ccc2c(c1)C(=O)N(c1cccc(O)c1)C2=O)c1ccccc1` [AK-918/37182008], the “17β-HSD2 Activity (in words)” value is on record as “Inactive”.

In the case of `Cc1ccccc1/C=N/NC(=O)Cn1nnc2ccccc21` [AK-968/11367105], the “17β-HSD2 Activity (in words)” value is recorded as “Inactive”.

Staying with this test, now noted: relative to compound 12.
Regarding `O=C(CSc1nccc(O)n1)Nc1cccc2nsnc12` [Compound 15], the “less potent than the most active hit (17β-HSD2)” value was found to be 5 fold.

Another test addresses T1, 17β-HSD2. The test is described as follows: 17β-HSD2 activity in intact transfected HEK-293 cells. The format is cell-based. As to conditions: intact HEK-293 cells. As for the experimental part:
(§1) Human embryonic kidney cells (HEK-293) were cultivated in DMEM containing 4.5 g/L glucose, 10% fetal bovine serum, 100 U/mL penicillin, 0.1 mg/mL streptomycin, 1× MEM nonessential amino acids, and 10 mM HEPES buffer, pH 7.4. The cells were incubated at 37 °C until 80% confluency. The cells were transfected using the calcium phosphate method with expression plasmids for 17β-HSD2 and 17β-HSD3. After 24 h, the cells were trypsinized and seeded on poly-L-lysine-coated 96-well plates (15 000 cells/well).
(§2) The inhibitory activities were measured 24 h after seeding as follows: old medium was aspirated and replaced by 30 μL of charcoal-treated DMEM (cDMEM). Ten microliters of inhibitor dissolved in cDMEM into the respective concentration was added, and mixtures were preincubated at 37 °C for 20 min. 17β-HSD2 inhibitory activities were measured in the presence of 190 nM unlabeled estradiol and 10 nM radiolabeled estradiol. N-(3-Methoxyphenyl)-N-methyl-5-m-tolylthiophene-2-carboxamide (compound 19 in ref ([26])) was used as positive control. The reaction mixtures were incubated for 20 min, and the reactions were stopped by adding an excess of estradiol and estrone (1:1, 2 mM in methanol) to the mixture.
As for `O=C(CSc1nccc(O)n1)Nc1cccc2nsnc12` [Compound 15], the “17β-HSD2 inhibition in intact cells (in words)” value (“17β-HSD2 inhibition” for short) is “concentration-dependently inhibited 17β-HSD2”.

Turning to `O=S(=O)(Nc1ccc(O)c(Cl)c1)c1ccc(F)cc1` [Compound 13], the “17β-HSD2 inhibition” value is reported as “concentration-dependently inhibited 17β-HSD2”.

Regarding `Cc1cc(C)c(OCC(=O)N/N=C/c2ccc(O)cc2O)c(Br)c1` [Compound 11], the “17β-HSD2 inhibition” value is listed as “concentration-dependently inhibited 17β-HSD2”.

The target in the next test is T2, 17β-HSD3 (Homo sapiens, UniProt P37058).
T2 construct: expressed in transfected cells; host or cells: HEK-293 (transient, calcium phosphate), intact cells
T2 sequence (P37058 1-310): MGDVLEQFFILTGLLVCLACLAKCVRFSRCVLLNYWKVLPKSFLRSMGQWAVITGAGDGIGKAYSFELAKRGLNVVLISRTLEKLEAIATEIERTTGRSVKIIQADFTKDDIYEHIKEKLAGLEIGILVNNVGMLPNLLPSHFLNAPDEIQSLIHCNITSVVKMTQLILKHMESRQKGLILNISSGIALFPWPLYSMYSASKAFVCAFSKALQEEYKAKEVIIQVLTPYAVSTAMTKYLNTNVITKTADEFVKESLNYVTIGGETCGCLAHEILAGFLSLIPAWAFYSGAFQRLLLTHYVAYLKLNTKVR
Briefly: 17β-HSD3 activity in intact transfected HEK-293 cells. The format is cell-based. As to conditions: intact cells. How it is done:
as §1, §2
17β-HSD3 inhibitory activities were measured in the presence of 190 nM unlabeled androstenedione and 10 nM radiolabeled androstenedione. Benzophenone-1 was used as positive control. The reaction mixtures were incubated for 30 min, and the reactions were stopped by adding an excess of androstenedione and testosterone (1:1, 2 mM in methanol). The steroids were separated by TLC, followed by scintillation counting and calculation of substrate concentration. Data was obtained from three independent measurements.
Regarding `Cc1cc(C)c(S(=O)(=O)Nc2cccc(O)c2)cc1C` [Compound 16], the “17β-HSD3 inhibition (in words)” value is recorded as “weak 17β-HSD3 inhibitors”.

For `O=S(=O)(Nc1ccc(O)c(Cl)c1)c1ccc(F)cc1` [Compound 13], the “17β-HSD3 inhibition (in words)” value is listed as “equipotent toward these two enzymes”.

As to `Cc1cc(C)c(OCC(=O)N/N=C/c2ccc(O)cc2O)c(Br)c1` [Compound 11], the “17β-HSD3 inhibition (in words)” value is listed as “more active against 17β-HSD3 than 17β-HSD2”.

The same test, now with this note: rest activity at 20 μM, Table 3.
For `O=S(=O)(Nc1cccc(O)c1)c1ccc(Br)cc1` [Compound 21], the “17β-HSD3 intact inhibition class (n.i.)” value was “n.i”.

Consider `Cc1ccc(NS(=O)(=O)c2cccc(Br)c2)cc1O` [Compound 24], for which the “17β-HSD3 intact inhibition class (n.i.)” value is “n.i”.

The test system of another test is 17β-HSD2.
Assay: not given
As to conditions: Table S1; ref SI 1, 2, 4; read-out: IC50 17β-HSD2 (test set); cited from earlier work.
With `COc1ccc(-c2ccc(C(=O)N(C)Cc3cccc(O)c3)s2)cc1` [Compound 7], the pIC50 was 6.79.

Turning to `CN1C(=O)C[C@H](c2ccccc2)[C@@H]1[C@H](O)c1ccc(-c2cccnc2)s1` [Compound 3], the pIC50 is 7.30.

As for `Cc1cccc(-c2ccc(C(=O)N(C)Cc3cccc(O)c3)s2)c1` [Compound 2], the pIC50 is 6.79.

As to `Oc1ccc(-c2ccc3c(O)cccc3c2)cc1` [Compound 1], the pIC50 is 6.52.

As for `COc1cccc(-c2ccc(C(=O)N(C)Cc3cccc(O)c3)s2)c1F` [Compound 6], the pIC50 was 7.21.

Regarding `CN1C(=O)C[C@H](c2ccccc2F)[C@@H]1[C@H](O)c1ccc(-c2ccccc2)s1` [Compound 8], the pIC50 is 8.00.

The same test, now with this note: Table S1; ref SI 3; read-out: IC50 17β-HSD2 (test set); cited from earlier work.
For the compound `Oc1cccc(-c2ccnc(-c3ccc(Cl)s3)c2)c1` [Compound 4], the pIC50 was 6.33.

Staying with this test, now noted: at 1 µM, Table S1; ref SI 1, 2, 3, 5, 6; cited from earlier work.
For the compound `Oc1cccc(-c2ccccc2)c1` [580-51-8], the “17β-HSD2 enzyme inhibition (test set)” value is recorded as under 10%.

As for `CC(=O)Nc1cccc(-c2ccc(O)cc2)c1` [462660-26-0], the “17β-HSD2 enzyme inhibition (test set)” value is under 10%.

`CS(=O)(=O)Nc1ccc(-c2ccc(O)cc2)cc1` [319015-65-1]: the “17β-HSD2 enzyme inhibition (test set)” value is under 10%.

The same test, now with this note: at 10 µM, Table S1; ref SI 7, 10; cited from earlier work.
Turning to `C[C@]12CC[C@@H]3c4ccc(O)cc4C(=O)C[C@H]3[C@@H]1CCC2=O` [1476-34-2], the “17β-HSD2 enzyme inhibition (test set)” value was under 10%.
